In the supplement of paper PMC10307832:

How the values were obtained:
Assay in all cases: relative viability (nuclei count vs DMSO), 5 days (fraction); higher = more cells survive
[1] = compound: CC1=C(N=C(N=C1N)[C@H](CC(=O)N)NC[C@@H](C(=O)N)N)C(=O)N[C@@H]([C@H](C2=CN=CN2)OC3C(C(C(C(O3)CO)O)O)OC4C(C(C(C(O4)CO)O)OC(=O)N)O)C(=O)N[C@H](C)[C@H]([C@H](C)C(=O)N[C@@H]([C@@H](C)O)C(=O)NCCC5=NC(=CS5)C6=NC(=CS6)C(=O)NCCC[S+](C)C)O [Bleomycin] + CC1(C)CCC(c2ccc(Cl)cc2)=C(CN2CCN(c3ccc(C(=O)NS(=O)(=O)c4ccc(N[C@H](CCN5CCOCC5)CSc5ccccc5)c(S(=O)(=O)C(F)(F)F)c4)cc3)CC2)C1 [Navitoclax] (partner 0.5 µM); conditions: main component drawn
Outline: (§1)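 A single step with final 0.05% Triton X-100, 1% formaldehyde and 1 ug/ml Hoechst fixed the cells and stained nuclei 5 days after treatment. Lung cancer cell lines in 1536-well plates had been treated by pin tool the day after seeding with one drug alone or a fixed anchor-drug dose plus five library-drug doses (not always all listed) in √10 steps, and nuclei were counted on 4× images. Relative viability is the ratio of nuclei in treated wells to nuclei in vehicle wells, taken as the median of duplicate plates.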

[2] = compound: CC1=C(N=C(N=C1N)[C@H](CC(=O)N)NC[C@@H](C(=O)N)N)C(=O)N[C@@H]([C@H](C2=CN=CN2)OC3C(C(C(C(O3)CO)O)O)OC4C(C(C(C(O4)CO)O)OC(=O)N)O)C(=O)N[C@H](C)[C@H]([C@H](C)C(=O)N[C@@H]([C@@H](C)O)C(=O)NCCC5=NC(=CS5)C6=NC(=CS6)C(=O)NCCC[S+](C)C)O [Bleomycin] + CC(C)C[C@H](NC(=O)[C@H](Cc1ccccc1)NC(=O)c1cnccn1)B(O)O [Bortezomib] (partner 0.002 µM); conditions: main component drawn
Outline: as §1

[3] = compound: CC1=C(N=C(N=C1N)[C@H](CC(=O)N)NC[C@@H](C(=O)N)N)C(=O)N[C@@H]([C@H](C2=CN=CN2)OC3C(C(C(C(O3)CO)O)O)OC4C(C(C(C(O4)CO)O)OC(=O)N)O)C(=O)N[C@H](C)[C@H]([C@H](C)C(=O)N[C@@H]([C@@H](C)O)C(=O)NCCC5=NC(=CS5)C6=NC(=CS6)C(=O)NCCC[S+](C)C)O [Bleomycin] + Nc1nc2[nH]cc(CCc3ccc(C(=O)N[C@@H](CCC(=O)O)C(=O)O)cc3)c2c(=O)[nH]1 [Pemetrexed] (partner 0.2 µM); conditions: main component drawn
Outline: as §1

[4] = compound: COc1cc([C@@H]2c3cc4c(cc3[C@@H](O[C@@H]3O[C@@H]5CO[C@@H](C)O[C@H]5[C@H](O)[C@H]3O)[C@H]3COC(=O)[C@H]23)OCO4)cc(OC)c1O [Etoposide] + N=C(N)NC(=N)NCCc1ccccc1 [Phenformin] (partner 250 µM)
Outline: as §1

| Cell Line | relative viability ([1]; first compound 0.01 µM) | relative viability ([1]; first compound 0.03162 µM) | relative viability ([1]; first compound 0.1 µM) | relative viability ([1]; first compound 0.3162 µM) | relative viability ([1]; first compound 1 µM) | relative viability ([2]; first compound 0.01 µM) | relative viability ([2]; first compound 0.03162 µM) | relative viability ([2]; first compound 0.1 µM) | relative viability ([2]; first compound 0.3162 µM) | relative viability ([2]; first compound 1 µM) | relative viability ([3]; first compound 0.01 µM) | relative viability ([3]; first compound 0.03162 µM) | relative viability ([3]; first compound 0.1 µM) | relative viability ([3]; first compound 0.3162 µM) | relative viability ([3]; first compound 1 µM) | relative viability ([4]; first compound 0.01 µM) | relative viability ([4]; first compound 0.03162 µM) | relative viability ([4]; first compound 0.1 µM) | relative viability ([4]; first compound 0.3162 µM) | relative viability ([4]; first compound 1 µM) |
| --- | --- | --- | --- | --- | --- | --- | --- | --- | --- | --- | --- | --- | --- | --- | --- | --- | --- | --- | --- | --- |
| NCI-H1993 | 0.887 | 0.765 | 0.863 | 0.663 | 0.584 | 1.2 | 1.06 | 0.95 | 0.539 | 0.548 | 0.649 | 0.584 | 0.496 | 0.469 | 0.514 | 0.502 | 0.571 | 0.528 | 0.51 | 0.412 |
| NCI-H2009 | 1.16 | 1.18 | 1.09 | 0.858 | 0.532 | 0.852 | 0.98 | 1.01 | 0.358 | 0.441 | 0.889 | 1.03 | 1.04 | 0.736 | 0.503 | 0.492 | 0.505 | 0.492 | 0.416 | 0.342 |
| NCI-H2023 | 0.723 | 0.72 | 0.519 | 0.244 | 0.148 | 0.61 | 0.772 | 0.548 | 0.205 | 0.11 | 0.178 | 0.204 | 0.157 | 0.136 | 0.0973 | 0.403 | 0.385 | 0.307 | 0.198 | 0.107 |
| NCI-H2085 | 0.994 | 1.02 | 0.849 | 0.508 | 0.465 | 0.768 | 0.875 | 0.707 | 0.377 | 0.366 | 0.878 | 0.954 | 0.811 | 0.347 | 0.447 | 0.748 | 0.78 | 0.532 | 0.547 | 0.322 |
| NCI-H2087 | 0.69 | 1.04 | 0.841 | 0.371 | 0.158 | 0.6 | 0.785 | 0.645 | 0.133 | 0.176 | 0.645 | 0.619 | 0.622 | 0.241 | 0.186 | 0.407 | 0.508 | 0.435 | 0.278 | 0.143 |
| NCI-H2126 | 0.787 | 0.82 | 0.839 | 0.8 | 0.643 | 1.06 | 1.08 | 1.08 | 0.7 | 0.947 | 0.728 | 0.774 | 0.629 | 0.567 | 0.611 | 0.524 | 0.534 | 0.427 | 0.413 | 0.236 |
| NCI-H2228 | 1.02 | 0.625 | 0.664 | 0.437 | 0.363 | 1.14 | 1.02 | 0.721 | 0.558 | 0.293 | 0.317 | 0.291 | 0.263 | 0.199 | 0.185 | 0.39 | 0.348 | 0.224 | 0.176 | 0.102 |
| NCI-H2347 | 0.75 | 0.883 | 0.663 | 0.259 | 0.402 | 0.915 | 1.05 | 0.889 | 0.7 | 0.476 | 0.401 | 0.427 | 0.435 | 0.383 | 0.423 | 0.39 | 0.446 | 0.345 | 0.247 | 0.294 |
| NCI-H2405 | 0.559 | 0.714 | 0.499 | 0.196 | 0.199 | 0.875 | 0.932 | 0.91 | 0.525 | 0.371 | 0.955 | 0.974 | 0.919 | 0.595 | 0.408 | 0.381 | 0.432 | 0.415 | 0.364 | 0.283 |
| NCI-H3122 | 1.08 | 1.03 | 0.96 | 0.79 | 0.547 | 0.999 | 0.976 | 0.957 | 0.698 | 0.428 | 0.214 | 0.205 | 0.201 | 0.165 | 0.166 | 0.351 | 0.382 | 0.377 | 0.281 | 0.197 |
| PC-3 [JPC-3] | 0.784 | 0.957 | 0.758 | 0.63 | 0.511 | 0.748 | 0.926 | 0.791 | 0.446 | 0.448 | 1.03 | 1.18 | 0.948 | 0.647 | 0.526 | 0.456 | 0.453 | 0.478 | 0.434 | 0.374 |
| PC-14 | 0.663 | 0.532 | 0.174 | 0.0752 | 0.0592 | 0.541 | 0.253 | 0.155 | 0.0725 | 0.0825 | 0.113 | 0.118 | 0.103 | 0.0537 | 0.0242 | 0.621 | 0.662 | 0.485 | 0.372 | 0.203 |
| RERF-LC-KJ | 0.54 | 0.5 | 0.439 | 0.227 | 0.192 | 0.887 | 0.727 | 0.625 | 0.343 | 0.334 | 0.416 | 0.504 | 0.391 | 0.261 | 0.142 | 0.414 | 0.469 | 0.42 | 0.36 | 0.329 |
| SK-LU-1 | 0.807 | 1.06 | 0.662 | 0.205 | 0.264 | 0.939 | 1.04 | 0.915 | 0.293 | 0.274 | 0.934 | 1.04 | 0.965 | 0.473 | 0.465 | 0.476 | 0.605 | 0.322 | 0.224 | 0.183 |
| SW 1573 | 0.652 | 0.571 | 0.515 | 0.201 | 0.104 | 0.7 | 0.812 | 0.719 | 0.305 | 0.26 | 0.755 | 0.691 | 0.572 | 0.44 | 0.225 | 0.341 | 0.36 | 0.255 | 0.183 | 0.142 |
